Experimental data from publication PMC7095208 (Nature, 2014).
Where two headings read alike, the source gives them in different places.

What was measured:
filoviruses [1] = details: cited from earlier work
HCV NS5B RNA polymerase = HCV NS5B RNA polymerase (Hepatitis C virus genotype 1b, UniProt P26663); type: biochemical
[2] = rat, in vivo, im
in vitro [3] = details: dog, pH 1
MARV-Angola = details: guinea pig, in vivo
HeLa cells = details: human
human lymphocytes = details: 787 µM
in vivo [4] = details: cynomolgus monkey, im
JUNV Romero = test: organism not typed; type: cell-based, Junín virus; details: HeLa
MARV Ci67 = test: organism not typed; type: cell-based, Marburg virus; details: HeLa
in vivo [5] = details: mouse, iv
hERG ion channel = hERG ion channel (Homo sapiens, UniProt Q12809); test: hERG ion channel current; type: biochemical; details: 30 µM; data not shown
in vitro [6] = details: human
MARV Angola = test: organism not typed; type: cell-based, Marburg virus; details: HeLa
SUDV Boniface = test: microbe, parasite or virus in culture; type: cell-based; details: Sudan ebolavirus, HeLa
RVFV ZH5018 = test: microbe, parasite or virus in culture; type: cell-based; details: Rift Valley fever virus, HeLa
in vivo [7] = details: Sprague-Dawley, rat
MARV Musoke = test: organism not typed; type: cell-based, Marburg virus; details: HeLa
MARV-Musoke = details: guinea pig, in vivo
in vitro [8] = details: human, s9, half-life (t1/2)
[9] = system: EBOV minigenome RNA replicon; type: cell-based, Ebola virus
EBOV Kikwit = test: microbe, parasite or virus in culture; type: cell-based, Ebola virus; details: Zaire ebolavirus, HeLa
[10] = system: Rift Valley fever virus (ZH501); details: mouse, in vivo
Marburg virus - Musoke = type: cell-based
filoviruses [11] = details: in vivo; cited from earlier work

hERG ion channel, sequence (Q12809 whole entry): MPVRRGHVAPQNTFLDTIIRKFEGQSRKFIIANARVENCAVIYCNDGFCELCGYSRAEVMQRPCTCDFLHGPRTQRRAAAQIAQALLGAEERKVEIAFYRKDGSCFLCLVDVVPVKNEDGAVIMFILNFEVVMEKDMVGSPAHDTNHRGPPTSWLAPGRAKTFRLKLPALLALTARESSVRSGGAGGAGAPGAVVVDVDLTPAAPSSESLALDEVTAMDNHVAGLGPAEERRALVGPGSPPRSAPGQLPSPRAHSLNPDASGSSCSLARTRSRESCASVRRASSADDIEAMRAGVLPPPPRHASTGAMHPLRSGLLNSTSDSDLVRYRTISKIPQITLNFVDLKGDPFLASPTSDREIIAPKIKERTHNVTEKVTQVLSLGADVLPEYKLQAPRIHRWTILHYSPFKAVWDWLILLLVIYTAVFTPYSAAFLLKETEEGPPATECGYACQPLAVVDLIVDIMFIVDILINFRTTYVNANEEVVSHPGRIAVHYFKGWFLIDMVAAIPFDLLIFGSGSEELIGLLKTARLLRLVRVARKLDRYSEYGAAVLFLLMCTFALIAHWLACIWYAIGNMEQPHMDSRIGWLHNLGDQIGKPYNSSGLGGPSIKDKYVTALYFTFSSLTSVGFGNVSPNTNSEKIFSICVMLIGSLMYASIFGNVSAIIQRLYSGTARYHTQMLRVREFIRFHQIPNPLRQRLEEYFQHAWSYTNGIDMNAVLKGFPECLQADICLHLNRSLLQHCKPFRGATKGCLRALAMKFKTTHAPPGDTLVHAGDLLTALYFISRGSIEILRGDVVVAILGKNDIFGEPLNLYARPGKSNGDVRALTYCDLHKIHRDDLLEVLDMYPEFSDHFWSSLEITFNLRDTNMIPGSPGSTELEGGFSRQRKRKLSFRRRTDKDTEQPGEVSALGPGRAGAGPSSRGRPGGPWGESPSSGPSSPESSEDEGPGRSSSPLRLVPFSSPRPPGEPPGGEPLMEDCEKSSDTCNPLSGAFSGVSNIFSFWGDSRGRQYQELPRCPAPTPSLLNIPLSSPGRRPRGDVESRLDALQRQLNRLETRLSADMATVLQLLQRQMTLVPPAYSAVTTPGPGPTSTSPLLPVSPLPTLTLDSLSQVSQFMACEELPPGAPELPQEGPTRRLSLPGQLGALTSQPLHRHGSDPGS
HCV NS5B RNA polymerase, sequence (P26663 2420-2989 limits assumed): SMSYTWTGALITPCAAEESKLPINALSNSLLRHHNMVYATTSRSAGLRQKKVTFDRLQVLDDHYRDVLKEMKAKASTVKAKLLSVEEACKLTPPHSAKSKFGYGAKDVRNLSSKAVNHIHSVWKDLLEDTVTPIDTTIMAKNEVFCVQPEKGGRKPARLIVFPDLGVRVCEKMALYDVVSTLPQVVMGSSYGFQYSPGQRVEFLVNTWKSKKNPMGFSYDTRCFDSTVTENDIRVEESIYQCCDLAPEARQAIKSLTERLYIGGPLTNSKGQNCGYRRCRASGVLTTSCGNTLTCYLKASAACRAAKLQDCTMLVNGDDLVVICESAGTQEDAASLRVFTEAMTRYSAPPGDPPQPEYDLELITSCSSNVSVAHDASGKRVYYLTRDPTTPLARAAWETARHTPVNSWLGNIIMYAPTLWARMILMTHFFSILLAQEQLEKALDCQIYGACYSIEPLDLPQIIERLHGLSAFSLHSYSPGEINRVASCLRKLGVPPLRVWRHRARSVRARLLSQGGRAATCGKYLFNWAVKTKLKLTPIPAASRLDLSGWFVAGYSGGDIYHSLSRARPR

## NC(=O)c1ncn([C@@H]2O[C@H](CO)[C@@H](O)[C@H]2O)n1 [ribavirin]
Filoviruses [1]
  activity against filoviruses: not active

## Nc1ncnc2c([C@@H]3N[C@H](COP(=O)(O)OP(=O)(O)OP(=O)(O)O)[C@@H](O)[C@H]3O)c[nH]c12 [BCX4430-TP]
HCV NS5B RNA polymerase
  RNA chain synthesis by HCV RNA polymerase: induces premature termination
[2]
  half-life in the liver: 372 min

## Nc1ncnc2c([C@@H]3N[C@H](CO)[C@@H](O)[C@H]3O)c[nH]c12 [BCX4430, (2S,3S,4R,5R)-2-(4-amino-5H-pyrrolo[3,2-d]pyrimidin-7-yl)-5-(hydroxymethyl)pyrrolidine-3,4-diol]
In vitro [3]
  CC50: > 296 µM
MARV-Angola
  post-exposure protection: significant post-exposure protection
  protection: protected
HeLa cells
  CC50: 242 µM
Human lymphocytes
  chromosomal aberrations: no detectable chromosomal aberrations
In vivo [4]
  half-life: < 5 min
JUNV Romero
  EC50: 42.2 µM
  EC90: > 100 µM
MARV Ci67
  EC50: 6.7 µM
  EC90: 16.1 µM
In vivo [5]
  half-life: < 5 min
hERG ion channel
  inhibition of hERG ion channel current: did not inhibit
In vitro [6]
  CC50: > 296 µM
MARV Angola
  EC50: 5 µM
  EC90: 12.3 µM
SUDV Boniface
  EC50: 3.4 µM
  EC90: 10.3 µM
RVFV ZH5018
  EC50: 41.6 µM
  EC90: 98 µM
Human RNA or DNA
  incorporation of BCX4430-MP into human RNA or DNA: no evidence of BCX4430-MP incorporation
In vivo [7]
  half-life: < 5 min
MARV Musoke
  EC50: 4.4 µM
  EC90: 10.5 µM
MARV-Musoke
  post-exposure protection: significant post-exposure protection
In vitro [8]
  half-life: > 54 min
[9]
  GFP expression in EBOV minigenome replicon assay: reduces expression of green fluorescent protein
MARV (Musoke variant); cynomolgus monkey, in vivo
  animals surviving: 83%
  haemorrhagic disease manifestations (PT, aPTT, serum AST, bilirubin) vs vehicle: ameliorated
  serum MARV burden: significantly and substantially reduced
  tolerability: well tolerated
MARV (Musoke variant); n = 6
  animals surviving: All animals
EBOV Kikwit
  EC50: 11.8 µM
  EC90: 25.4 µM
[10]
  protection against lethal Rift Valley fever virus challenge: protected
Marburg virus - Musoke
  production of infectious MARV virus: no detectable infectious MARV virus

## Nc1nccc2c1ncn2C1C=C(CO)C(O)C1O (stereo not shown) [c^3-Npc A, 3-deazaneplanocin A]
Filoviruses [11]
  protection against filoviruses in rodents: high-degree of protection

## NC(=O)c1nc(F)c[nH]c1=O [T-705, favipiravir]
Filoviruses [11]
  protection against filoviruses in rodents: high-degree of protection
